Test results: ChEMBL document CHEMBL1130733, “Synthesis and structure-activity relationships of pyridine-modified analogs of 3-[2-((S)-pyrrolidinyl)methoxy]pyridine, A-84543, a potent nicotinic acetylcholine receptor agonist” (Bioorg Med Chem Lett, 1998)
pEC50, pIC50, pKi: −log10 of the molar value.

Columns and labels:
[1] = target: Neuronal acetylcholine receptor; alpha4/beta2 (Rattus norvegicus, UniProt P09483+P12390); test: Binding affinity towards nAChR (alpha4-beta2) by the displacement of [3H](-)-cytisine in whole rat brain membranes.; format: cell membranes
[2] = target: Nicotinic acetylcholine receptor alpha3/betaX; test: Stimulation of cation efflux in Nicotinic acetylcholine receptor alpha3-betaX subtype expressing IMR-32 cells; format: functional, cell-based, Homo sapiens
[3] = target: T1, Neuronal acetylcholine receptor; alpha4/beta2 (Homo sapiens, UniProt P17787+P43681); test: Maximal efficacy relative to 100 uM nicotine in human nAChR alpha4-beta2 expressing K177 cells; format: cell-based
[4] = target: T1, Neuronal acetylcholine receptor; alpha4/beta2; test: Stimulation of cation efflux in human nAChR alpha4-beta2 expressing K177 cells; format: cell-based
[5] = target: T1, Neuronal acetylcholine receptor; alpha4/beta2; settings: IMR-32
Description: Maximal efficacy in nAChR subtype human alpha3betaX, expressed in IMR-32 cells

[6] = target: T1, Neuronal acetylcholine receptor; alpha4/beta2; settings: K177
Description: Maximal efficacy in human nAChR alpha4-beta2 expressing K177 cells

[7] = target: T1, Neuronal acetylcholine receptor; alpha4/beta2; test: Inhibition of cation efflux in human nAChR alpha4-beta2 expressing K177 cells; format: cell-based
[8] = target: Nicotinic acetylcholine receptor alpha3/betaX (Homo sapiens) (UniProt P11230+P17787+P30926+P32297+Q05901); test: Maximal efficacy relative to 100 uM nicotine in Nicotinic acetylcholine receptor alpha3-betaX subtype expressing IMR-32 cells; format: cell-based

T1 sequence (P17787 whole entry): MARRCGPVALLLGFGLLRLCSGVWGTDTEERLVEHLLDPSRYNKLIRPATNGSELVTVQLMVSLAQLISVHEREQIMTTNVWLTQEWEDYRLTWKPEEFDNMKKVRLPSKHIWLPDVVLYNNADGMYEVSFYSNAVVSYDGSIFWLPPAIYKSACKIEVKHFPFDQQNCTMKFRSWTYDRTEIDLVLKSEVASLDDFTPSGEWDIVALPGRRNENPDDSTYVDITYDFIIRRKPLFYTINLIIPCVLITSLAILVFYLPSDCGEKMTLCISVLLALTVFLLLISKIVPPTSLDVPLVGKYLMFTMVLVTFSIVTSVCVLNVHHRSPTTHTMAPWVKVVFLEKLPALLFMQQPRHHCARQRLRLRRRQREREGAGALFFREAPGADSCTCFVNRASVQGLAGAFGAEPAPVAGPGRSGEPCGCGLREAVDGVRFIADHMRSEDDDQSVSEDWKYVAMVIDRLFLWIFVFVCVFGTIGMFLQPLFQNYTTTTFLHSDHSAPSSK
T1 sequence (P43681 whole entry): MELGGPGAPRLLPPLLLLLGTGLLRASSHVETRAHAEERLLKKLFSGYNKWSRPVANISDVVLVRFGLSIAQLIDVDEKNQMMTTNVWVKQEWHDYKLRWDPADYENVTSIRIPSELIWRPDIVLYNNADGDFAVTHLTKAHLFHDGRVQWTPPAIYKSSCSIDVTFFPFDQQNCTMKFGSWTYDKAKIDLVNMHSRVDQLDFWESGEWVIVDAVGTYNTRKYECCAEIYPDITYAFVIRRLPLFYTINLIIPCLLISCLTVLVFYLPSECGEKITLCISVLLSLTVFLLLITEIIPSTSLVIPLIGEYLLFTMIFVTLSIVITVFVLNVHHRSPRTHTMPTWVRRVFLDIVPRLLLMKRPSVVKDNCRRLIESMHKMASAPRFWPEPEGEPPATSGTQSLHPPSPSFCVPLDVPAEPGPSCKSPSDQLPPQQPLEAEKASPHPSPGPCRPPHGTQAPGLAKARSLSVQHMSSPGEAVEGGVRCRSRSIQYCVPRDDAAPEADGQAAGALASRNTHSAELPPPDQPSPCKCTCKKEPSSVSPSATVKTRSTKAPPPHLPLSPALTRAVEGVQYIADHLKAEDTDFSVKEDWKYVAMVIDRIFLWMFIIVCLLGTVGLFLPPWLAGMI
Chain of Neuronal acetylcholine receptor; alpha4/beta2 (Rattus norvegicus, UniProt P09483+P12390) (P09483 whole entry): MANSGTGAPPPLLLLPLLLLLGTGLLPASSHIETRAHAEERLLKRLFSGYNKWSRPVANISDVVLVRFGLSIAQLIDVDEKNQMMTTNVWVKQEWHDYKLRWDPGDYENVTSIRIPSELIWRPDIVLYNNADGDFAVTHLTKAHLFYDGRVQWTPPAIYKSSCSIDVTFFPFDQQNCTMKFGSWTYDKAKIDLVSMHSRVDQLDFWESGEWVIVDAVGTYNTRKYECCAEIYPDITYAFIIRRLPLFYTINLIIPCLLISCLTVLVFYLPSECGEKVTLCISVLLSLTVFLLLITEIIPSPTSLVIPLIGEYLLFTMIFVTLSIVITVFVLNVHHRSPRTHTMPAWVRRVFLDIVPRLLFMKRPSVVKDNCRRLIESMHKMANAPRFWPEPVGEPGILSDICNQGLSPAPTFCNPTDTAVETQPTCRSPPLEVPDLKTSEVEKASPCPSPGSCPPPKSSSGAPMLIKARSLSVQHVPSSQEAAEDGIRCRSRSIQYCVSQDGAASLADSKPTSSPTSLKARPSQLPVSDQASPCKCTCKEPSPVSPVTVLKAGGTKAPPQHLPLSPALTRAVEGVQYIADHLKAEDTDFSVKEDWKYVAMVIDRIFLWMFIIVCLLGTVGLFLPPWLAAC
Chain of Neuronal acetylcholine receptor; alpha4/beta2 (Rattus norvegicus, UniProt P09483+P12390) (P12390 whole entry): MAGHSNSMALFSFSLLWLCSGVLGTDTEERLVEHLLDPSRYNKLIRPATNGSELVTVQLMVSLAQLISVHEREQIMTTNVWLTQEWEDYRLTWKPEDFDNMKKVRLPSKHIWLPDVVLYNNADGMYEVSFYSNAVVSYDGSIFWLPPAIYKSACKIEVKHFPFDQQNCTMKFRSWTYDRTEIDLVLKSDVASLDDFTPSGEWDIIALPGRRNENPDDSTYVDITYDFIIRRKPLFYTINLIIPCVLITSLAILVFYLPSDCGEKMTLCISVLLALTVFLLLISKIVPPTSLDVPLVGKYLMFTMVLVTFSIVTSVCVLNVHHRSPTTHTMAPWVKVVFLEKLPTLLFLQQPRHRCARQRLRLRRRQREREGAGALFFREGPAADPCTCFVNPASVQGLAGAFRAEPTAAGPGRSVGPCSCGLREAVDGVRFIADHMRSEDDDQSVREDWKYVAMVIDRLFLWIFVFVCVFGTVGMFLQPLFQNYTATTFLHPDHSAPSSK

SMILES | pKi [1] | pEC50 [2] | Max [3] | pEC50 [4] | further results
CN1CCC[C@H]1COc1cc(Br)c[n+]([O-])c1 | 7.46 | – | – | – | –
CN1CCC[C@H]1COc1cccnc1[N+](=O)[O-] | 5.05 | – | – | – | –
CN1CCC[C@H]1COc1cncc(N)c1 | 9.20 | – | – | – | –
CCNc1cncc(OC[C@@H]2CCCN2C)c1 | 8.43 | – | – | – | –
CN1CCC[C@H]1COc1cncc(Cl)c1 | 9.22 | – | – | – | –
Cc1ccc(OC[C@@H]2CCCN2C)cn1 | 8.90 | 4.87 | 54.4% | 5.66 | –
Cc1ccncc1OC[C@@H]1CCCN1C | 8.39 | < 3.00 | 73.9% | 5.68 | –
CC(C)Cc1cncc(OC[C@@H]2CCCN2C)c1 | 9.68 | – | – | – | –
CN1CCC[C@H]1c1cccnc1 | – | – | – | – | Max [5]: 100%; Max [6]: 100%
CCCCCCc1cncc(OC[C@@H]2CCCN2C)c1 | 9.49 | – | – | – | –
CCCc1cncc(OC[C@@H]2CCCN2C)c1 | 9.92 | < 3.00 | 13% | < 3.00 | pIC50 [7]: 5.62
CN1CCC[C@H]1COc1cncc(Br)c1 | 9.57 | – | 41.8% | 5.23 | –
CCCCc1cncc(OC[C@@H]2CCCN2C)c1 | 9.80 | < 3.00 | 14% | < 3.00 | pIC50 [7]: 6.19
Cc1ncccc1OC[C@@H]1CCCN1C | 7.64 | 4.74 | 26.7% | 5.32 | Max [8]: 27.7%
CCN(CC)C(=O)c1ccncc1OC[C@@H]1CCCN1C | 5.55 | – | – | – | –
CN1CCC[C@H]1COc1cccnc1I | 6.22 | – | – | – | –
CN1CCC[C@H]1COc1cncc([N+](=O)[O-])c1 | 8.33 | – | – | – | –
CN1CCC[C@H]1COc1cccnc1 | 9.82 | 4.71 | 100% | – | Max [8]: 73.2%
CN1CCC[C@H]1COc1ccc(F)nc1 | 8.59 | – | – | – | –
CN1CCC[C@H]1COc1ccc(CO)nc1 | 7.01 | – | – | – | –
CSc1ncccc1OC[C@@H]1CCCN1C | 6.25 | – | – | – | –
CN1CCC[C@H]1COc1cncc(F)c1 | 9.16 | – | – | – | –
Cc1cncc(OC[C@@H]2CCCN2C)c1 | 9.32 | 5.54 | 77% | 5.64 | –
CN1CCC[C@H]1COc1ccc(Br)nc1 | 8.72 | < 3.00 | 42.5% | 5.59 | –
CN1CCC[C@H]1COc1cnccc1Br | 7.55 | < 3.00 | 14.1% | < 3.00 | –
CN1CCC[C@H]1COc1ccc(Cl)nc1 | 9.19 | 4.57 | 108% | 5.85 | –
CCc1cncc(OC[C@@H]2CCCN2C)c1 | 9.49 | < 3.00 | 33.7% | 6.00 | –
CN1CCC[C@H]1COc1cncc(C(F)(F)F)c1 | 8.74 | – | – | – | –
CN1CCC[C@H]1COc1cccnc1Br | 6.35 | < 3.00 | 12.3% | < 3.00 | –
